The values below come from PMC7661967, “Magnetic Resonance Molecular Imaging of Extradomain B Fibronectin Improves Imaging of Pancreatic Cancer Tumor Xenografts” (Frontiers in Oncology, 2020).

One assay deals with T1, EDB fragment of FN (Homo sapiens, UniProt P02751).
T1 construct: The EDB fragment of FN was expressed in E. coli; made in house; host or cells: E. coli
Briefly: Microscale thermophoresis binding affinity. Conditions: MST. As for the experimental part: The binding affinity of MT218 was determined with microscale thermophoresis (MST) using a Nanotemper Monolith NT.115 instrument (NanoTemper Technologies, Munich, Germany). The EDB fragment of FN was expressed in E. coli, purified, and labeled with amine-reactive dye NT-647. MT218 was dissolved into assay buffer (50 mM PBS w/0.05% Tween-20). This solution was further diluted using assay buffer to give a series of MT218 working solutions. Each MT218 working solution was then mixed with a fixed concentration of fluorescently labeled EDB fragment. The mixtures of MT218 and EDB were then loaded into standard capillaries, and MST measurements were performed at 25°C using 20–80% light-emitting diode power and 40% infrared-laser power at varying concentrations of MT218.
A general note: Microscale thermophoresis detects binding through changes in fluorescence in a small temperature gradient.

The subject of assay [1] is BxPC3-GFP-Luc intrapancreatic tumor xenografts. Kind of assay: MRMI of BxPC3-GFP-Luc intrapancreatic tumor xenografts (3T). The class given is in vivo, human cells in female nu/nu mice. As for the experimental part:
For flank xenograft models, 4 × 10^6 Capan-1 cells suspended in 100 μL of a 6 mg/mL Matrigel (Corning, Corning, NY) solution was injected subcutaneously into the flank of 8-week-old female nu/nu mice. The tumor bearing mice were imaged after tumor volumes exceeded 300 mm^3. For orthotopic intrapancreatic models, the pancreas of 4-week-old female nu/nu mice were surgically exposed via a ~10 mm incision in the left ventral abdomen and the application of gentle pressure to express the spleen and associated pancreatic tissue. 1 × 10^6 BxPC3-GFP-Luc or PANC-1-GFP-Luc cells suspended in 100 μL of a Matrigel solution (6 mg/mL) was injected into the pancreatic tissue using an insulin syringe with a 31G needle. Any leakage of cell suspension was lavaged with DPBS twice to prevent intraabdominal seeding PaCa cells. The peritoneal fascia was closed with absorbable stitches, and the dermis closed with stainless steel wound clips. Prior to imaging, growth of tumor was verified by bioluminescence imaging with intraperitoneal injection of d-luciferin on IVIS Spectrum system (Perkin Elmer, Waltham, MA).
Mice bearing intrapancreatic tumors were anesthetized and a tail vein catheter was inserted. Image acquisition was performed on a MR Solutions 3T MRS 3000 scanner with a mouse radiofrequency coil. Axial images were obtained using a Fast Spin Echo (FSE) MRI sequence (305 ms TR, 11 ms TE, 90° FA, 4 cm × 4 cm FOV, 1 mm slice thickness, 10 slices, echo train length = 4, echo spacing = 11 ms, 4 averages, 256 × 256 matrix, 0.0156 × […] cm/pixel resolution) with respiratory gating. Images were acquired before contrast and at different time points after contrast injection at a dose of 0.1 mmol/kg (100 μL). For competitive binding experiments, a 5:1 molar ratio of free ZD2 peptide to MT218 was injected in mice bearing intrapancreatic BxPC3 tumor xenografts (n = 3) at a dose of 0.1 mmol MT218/kg (100 μL). Images obtained on the MR Solutions 3T scanner were normalized using the Surscalereader.exe (MR Solutions, Guildford, UK) program supplied.
Image files were exported and analyzed in Horus software. ROIs were drawn in the tumor, liver, kidney, and muscle. Muscle ROIs were taken from the muscle, with other structures (liver, kidney, tumor) identified after comparison with published images and comparison with anatomical landmarks or bioluminescent imaging. Pancreatic lesions were localized using the liver, kidney, and spleen as anatomical landmarks. […] Size of ROIs drawn for image analysis are summarized in Supplementary Table 1. The contrast-to-noise ratio of the tumor (CNR) was calculated using the following equation, where σnoise is the standard deviation of intensities from an ROI drawn outside of the mouse body:
CNR=Mean IntensityTumor-Mean IntensityMuscle/σnoise.
Image subtraction was performed on images adjusted to the same window and level in FIJI open-source software.
Image contrast was reported as fold enhancement of contrast to noise ratio of post-contrast images over pre-contrast images using Fold Enhancement = CNRpost/CNRpre. Statistical analysis of CNR was performed in Minitab Express (Minitab Inc., State College, PA). One-way ANOVA with Fisher Individual Tests for Differences of Means post-hoc testing was performed to determine statistical significance between >2 means (p < 0.05). Student's T test was used to determine statistical significance between 2 means (p < 0.05).
For orientation: In xenograft studies the graft and the host belong to different species.

Assay [2] in a line: Kidney CNR in contrast-enhanced MRI. Conditions: all tested mice, p > 0.05; BxPC3-GFP-Luc (n = 3) and PANC-1-GFP-Luc (n = 6) models. The class given is in vivo, nu/nu mice. As for the experimental part: (§1) Flank tumor-bearing mice were anesthetized and a tail vein catheter inserted. MR image acquisition was performed on a 7T Biospin (Bruker, Billerica, MA) preclinical small animal scanner with a volume radiofrequency coil. Axial images were obtained using a multi-spin multi-echo (MSME) MRI sequence (500 ms TR, 8.1 ms TE, 90° FA, 4.50 cm × 4.50 cm FOV, 1.50 mm slice thickness, 16 slices, 2 averages, 200 × 200 matrix, 0.0225 × 0.0225 cm/pixel resolution). Contrast agents were injected at a dose of 0.1 mmol/kg (100 μL) via the tail vein catheter, followed by a saline flush. Images of the tumors were acquired before contrast and at various time points after contrast administration. Gd(HP-DO3A) was used as a control.
(§2) Mice bearing intrapancreatic tumors were anesthetized and a tail vein catheter was inserted. Image acquisition was performed on a MR Solutions 3T MRS 3000 scanner with a mouse radiofrequency coil. […]
(§3) Image files were exported and analyzed in Horus software. […] The contrast-to-noise ratio of the tumor (CNR) was calculated using the following equation, where σnoise is the standard deviation of intensities from an ROI drawn outside of the mouse body: […]

A short description of assay [3]: Spleen CNR in contrast-enhanced MRI. The class given is in vivo, nu/nu mice. Conditions: BxPC3-GFP-Luc intrapancreatic model (n = 3), p > 0.05. As for the experimental part: as §1, §2, §3
Setting [4] is: 0.1 mmol/kg, 10 min post-injection, n = 3.

Values joined by “and” are separate entries in the source; they are usually repeats but may differ in a detail not shown here. Identical values can stand only once. “Also recorded” adds a separate entry of the source. No end group written: not given here.

T1 sequence (P02751 1271-1359 limits assumed): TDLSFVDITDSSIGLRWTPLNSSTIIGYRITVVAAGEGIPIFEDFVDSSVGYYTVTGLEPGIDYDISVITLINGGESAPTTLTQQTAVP

Turning to “ZD2-N3-Gd(HP-DO3A) (TVRTSAD; also: conjugated via N3 to Gd(HP-DO3A) contrast agent, end not given here) [MT218, small molecular conjugate of ZD2 peptide to a macrocyclic clinical MRI contrast agent Gd(HP-DO3A)]”, the “binding affinity (in words)” value in the assay with EDB fragment of FN (MT218 to EDB-FN) was “micromolar affinity; also recorded: moderate binding affinity”. In the assay with EDB fragment of FN (NT-647-labeled EDB fragment, 50 mM PBS w/0.05% Tween-20, 25°C), the Kd is 3.2 ± 0.2 µM. Besides, in assay [1] (0.1 mmol/kg, 10 min post-injection (maximum for MT218), n = 3), the “tumor CNR increase (post/pre)” value was 5.3 fold. Moreover, the tumor contrast enhancement entry in assay [1] (setting [4]) is “strong contrast enhancement”; in assay [1] (0.1 mmol/kg, 20 min post-injection, n = 3), “decreased”; in assay [1] (0.1 mmol/kg, 30 min post-injection, n = 3), “returned to background levels”. Moreover, the “tumor enhancement, subtraction images” value in assay [1] (setting [4]) was “strong enhancement and clear delineation”. For the same substance, the “MT218 CNR relative to control” value in assay [1] (BxPC3-GFP-Luc intrapancreatic, control Gd(HP-DO3A), p < 0.05) turned out to be 212%. Further, the “CNR relative to clinical agent” value in assay [1] (BxPC3-GFP-Luc intrapancreatic, vs Gd(HP-DO3A), p < 0.05) was found to be 2.1 times. Also, the CNR increase entry in assay [1] (MT218 0.1 mmol/kg co-injected with 5-fold excess free ZD2 peptide, n = 3) is “approximately 2.5 fold”. In assay [1] (MT218 0.1 mmol/kg co-injected with 5-fold excess free ZD2 peptide, vs MT218 alone, n = 3), the “contrast enhancement, competitive binding experiment” value is on record as “significant reduction of contrast enhancement”. Moreover, the “CNR with free ZD2 peptide compared with MT218 alone” value in assay [1] (MT218 co-injected with 5-fold free ZD2 peptide, n = 3, p < 0.05) was “significant decrease in tumor CNR; also recorded: significantly lower”. Further, the “size of smallest tumor detected / better visualized” value in assay [1] (smallest average size / area of tumor nodules, cf. BxPC3 + MT218 ROI in Supplementary Table 1) was 6.1 mm^2 and 6.13 mm^2. Also, the “kidney CNR, MT218 vs Gd(HP-DO3A)” value in assay [2] was “No significant (n.s, p>0.05) difference in kidney CNR”. For the same substance, the “spleen CNR, MT218 vs Gd(HP-DO3A)” value in assay [3] is given as “No significant (n.s, p>0.05) difference in spleen CNR”.

The Kd is the concentration at which binding is half-saturated.
